Test results as given in ChEMBL document CHEMBL1177720, “Selective hexapeptide agonists and antagonists for human complement C3a receptor” (J Med Chem, 2010).
The source made the active and inactive calls. The rule behind the calls is not given here. Numbered stars: 1 amine (or outer) side, 2 acyl side, 3 side chain; on linkers, the order of the positions; unused ones are H or OH. Square brackets hold non-standard residues; d marks the D form. Peptide text beside a SMILES is read from it. Orn(Me) = CN(CCC[C@H](N[*:1])C(=O)[*:2])[*:3]; 1Nal = N[C@@H](Cc1cccc2ccccc12)C(=O)O; hPhe = N[C@@H](CCc1ccccc1)C(=O)O; Cha = N[C@@H](CC1CCCCC1)C(=O)O; Nle = CCCC[C@H](N)C(=O)O

molecular target: T1, C3a anaphylatoxin chemotactic receptor (Homo sapiens) (UniProt Q16581); experiment: Agonist activity at human C3a receptor in human U937 cells assessed as induction of intracellular calcium release at 1 mM; type: functional, cell-based; conditions: U-937
T1 sequence (whole entry): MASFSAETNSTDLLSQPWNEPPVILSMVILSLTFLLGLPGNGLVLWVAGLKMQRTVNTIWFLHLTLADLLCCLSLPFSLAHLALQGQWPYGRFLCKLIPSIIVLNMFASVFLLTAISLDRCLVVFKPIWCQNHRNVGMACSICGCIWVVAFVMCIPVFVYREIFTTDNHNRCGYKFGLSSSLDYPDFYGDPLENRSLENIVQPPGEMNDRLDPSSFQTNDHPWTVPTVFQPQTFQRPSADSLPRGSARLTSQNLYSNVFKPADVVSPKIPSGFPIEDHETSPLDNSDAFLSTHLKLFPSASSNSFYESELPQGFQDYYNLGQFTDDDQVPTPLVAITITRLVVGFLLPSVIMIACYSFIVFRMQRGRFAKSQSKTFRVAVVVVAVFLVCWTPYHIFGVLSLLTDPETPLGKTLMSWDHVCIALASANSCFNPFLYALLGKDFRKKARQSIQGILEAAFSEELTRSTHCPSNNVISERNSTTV

`CNCCC[C@H](NC(=O)[C@@H](N)Cc1ccccc1)C(=O)N[C@H](C(=O)N[C@@H](CC(C)C)C(=O)N[C@@H](C)C(=O)N[C@@H](CCCNC(=N)N)C(=O)O)[C@@H](C)O` (H-F[Orn(Me)]TLAR-OH) was tested, and the Activity was “inactive”.
With `C[C@H](NC(=O)[C@H](Cc1ccccc1)NC(=O)[C@@H]1CCCN1C(=O)[C@H](CCCCN)NC(=O)[C@@H](N)Cc1ccccc1)C(=O)N[C@@H](CCCNC(=N)N)C(=O)O` (H-FKPFAR-OH) the Activity was “inactive”.
In the case of `CC(C)C[C@H](NC(=O)[C@@H]1CCCN1C(=O)[C@H](CCCCN)NC(=O)[C@@H](N)Cc1ccccc1)C(=O)N[C@@H](CC1CCCCC1)C(=O)N[C@@H](CCCNC(=N)N)C(=O)O` (H-FKPL[Cha]R-OH), the Activity is reported as “inactive”.
For `CC(C)C[C@H](NC(=O)[C@H](Cc1ccccc1)NC(=O)[C@H](CCCCN)NC(=O)[C@@H](N)Cc1ccccc1)C(=O)N[C@@H](C)C(=O)N[C@@H](CCCNC(=N)N)C(=O)O` (H-FKFLAR-OH), the Activity was “inactive”.

molecular target: T2, C3a anaphylatoxin chemotactic receptor (Homo sapiens, UniProt Q16581); experiment: Agonist activity at human C3a receptor in human U937 cells assessed as induction of intracellular calcium release; type: functional, cell-based, U-937; conditions: read-out: EC50
T2 sequence (Q16581 whole entry): T1 sequence (whole entry)

In order of rising EC50:
1. CCCC[C@H](NC(=O)[C@@H](N)Cc1ccccc1)C(=O)N[C@H](C(=O)N[C@@H](CC(C)C)C(=O)N[C@@H](C)C(=O)N[C@@H](CCCN=C(N)N)C(=O)O)[C@@H](C)O (H-F[Nle]TLAR-OH)  310 nM
2. CC(C)C[C@H](NC(=O)[C@H](CO)NC(=O)[C@H](CC(C)C)NC(=O)[C@@H](N)Cc1ccccc1)C(=O)N[C@@H](C)C(=O)N[C@@H](CCCNC(=N)N)C(=O)O (H-FLSLAR-OH)  360 nM
3. CC(C)C[C@H](NC(=O)[C@@H]1CCCN1C(=O)[C@H](CC(C)C)NC(=O)[C@@H](N)Cc1ccccc1)C(=O)N[C@@H](C)C(=O)N[C@@H](CCCNC(=N)N)C(=O)O (H-FLPLAR-OH)  420 nM
4. CC(C)C[C@H](NC(=O)CNC(=O)[C@H](Cc1c[nH]c2ccccc12)NC(=O)[C@@H](N)Cc1ccccc1)C(=O)N[C@@H](C)C(=O)N[C@@H](CCCNC(=N)N)C(=O)O (H-FWGLAR-OH)  470 nM
5. CC(C)C[C@H](NC(=O)[C@H](CO)NC(=O)[C@H](Cc1c[nH]c2ccccc12)NC(=O)[C@@H](N)Cc1ccccc1)C(=O)N[C@@H](C)C(=O)N[C@@H](CCCNC(=N)N)C(=O)O (H-FWSLAR-OH)  490 nM
6. CC(=O)N[C@@H](Cc1ccccc1)C(=O)N[C@@H](CC(C)C)C(=O)N[C@H](C(=O)N[C@@H](CC(C)C)C(=O)N[C@@H](C)C(=O)N[C@@H](CCCNC(=N)N)C(=O)O)[C@@H](C)O (Ac-FLTLAR-OH)  520 nM
7. CC(C)C[C@H](NC(=O)[C@@H]1CCCN1C(=O)[C@H](Cc1cccc2ccccc12)NC(=O)[C@@H](N)Cc1ccccc1)C(=O)N[C@@H](C)C(=O)N[C@@H](CCCNC(=N)N)C(=O)O (H-F[1Nal]PLAR-OH)  720 nM
8. CC(C)C[C@H](NC(=O)[C@@H]1CCCN1C(=O)[C@H](CC1CCCCC1)NC(=O)[C@@H](N)Cc1ccccc1)C(=O)N[C@@H](C)C(=O)N[C@@H](CCCNC(=N)N)C(=O)O (H-F[Cha]PLAR-OH)  780 nM
9. CC(C)C[C@H](NC(=O)[C@@H]1CCCN1C(=O)[C@H](CCc1ccccc1)NC(=O)[C@@H](N)Cc1ccccc1)C(=O)N[C@@H](C)C(=O)N[C@@H](CCCN=C(N)N)C(=O)O (H-F[hPhe]PLAR-OH)  1100 nM
10. CC(C)C[C@H](NC(=O)[C@H](C)NC(=O)[C@H](Cc1c[nH]c2ccccc12)NC(=O)[C@@H](N)Cc1ccccc1)C(=O)N[C@@H](C)C(=O)N[C@@H](CCCN=C(N)N)C(=O)O (H-FWALAR-OH)  1200 nM
11. CCCC[C@H](NC(=O)[C@@H](N)Cc1ccccc1)C(=O)N1CCC[C@H]1C(=O)N[C@@H](CC(C)C)C(=O)N[C@@H](C)C(=O)N[C@@H](CCCN=C(N)N)C(=O)O (H-F[Nle]PLAR-OH)  1800 nM
12. N=C(N)NCCC[C@@H](NC(=O)[C@H](CC1CCCCC1)NC(=O)[C@@H](CC1CCCCC1)NC(=O)[C@@H]1CCCN1C(=O)[C@H](CCCCN)NC(=O)[C@@H](N)Cc1ccccc1)C(N)=O  2200 nM
13. CC(C)C[C@H](NC(=O)[C@@H](NC(=O)[C@H](CC(C)C)NC(=O)[C@@H](N)Cc1ccc(O)cc1)[C@@H](C)O)C(=O)N[C@@H](C)C(=O)N[C@@H](CCCN=C(N)N)C(=O)O (H-YLTLAR-OH)  2500 nM
14. CCCC[C@H](NC(=O)[C@@H](NC(=O)[C@H](CC(C)C)NC(=O)[C@@H](N)Cc1ccccc1)[C@@H](C)O)C(=O)N[C@@H](C)C(=O)N[C@@H](CCCN=C(N)N)C(=O)O (H-FLT[Nle]AR-OH)  2700 nM
15. CC(C)C[C@H](NC(=O)[C@@H](NC(=O)[C@H](CCCCN)NC(=O)[C@@H](N)Cc1ccccc1)[C@@H](C)O)C(=O)N[C@@H](C)C(=O)N[C@@H](CCCNC(=N)N)C(=O)O (H-FKTLAR-OH)  3800 nM
16. CC(C)C[C@H](NC(=O)[C@@H]1CCCN1C(=O)[C@H](CCC(N)=O)NC(=O)[C@@H](N)Cc1ccccc1)C(=O)N[C@@H](C)C(=O)N[C@@H](CCCNC(=N)N)C(=O)O (H-FQPLAR-OH)  5300 nM
17. CC(C)C[C@H](NC(=O)[C@@H]1CCCN1C(=O)[C@H](Cc1ccccc1)NC(=O)[C@@H](N)Cc1ccccc1)C(=O)N[C@@H](C)C(=O)N[C@@H](CCCNC(=N)N)C(=O)O (H-FFPLAR-OH)  5400 nM
18. CSCC[C@H](NC(=O)[C@@H]1CCCN1C(=O)[C@H](CCCCN)NC(=O)[C@H](Cc1cnc[nH]1)NC(=O)[C@H](CO)NC(=O)[C@@H](N)Cc1ccc(O)cc1)C(=O)N1CCC[C@H]1C(=O)N[C@@H](CC(C)C)C(=O)N[C@H](C)C(=O)N[C@@H](CCCN=C(N)N)C(=O)O  5700 nM
19. CC(C)C[C@H](NC(=O)[C@@H](NC(=O)[C@H](CCCNC(=N)N)NC(=O)[C@@H](N)Cc1ccccc1)[C@@H](C)O)C(=O)N[C@@H](C)C(=O)N[C@@H](CCCNC(=N)N)C(=O)O (H-FRTLAR-OH)  6800 nM
20. CC(C)C[C@H](NC(=O)[C@@H](NC(=O)[C@H](CC(C)C)NC(=O)[C@@H](N)CCc1ccccc1)[C@@H](C)O)C(=O)N[C@@H](C)C(=O)N[C@@H](CCCNC(=N)N)C(=O)O (H-[hPhe]LTLAR-OH)  11000 nM
21. CC(C)C[C@H](NC(=O)[C@@H]1CCCN1C(=O)[C@H](CCCCN)NC(=O)[C@@H](N)Cc1ccccc1)C(=O)N[C@@H](Cc1c[nH]c2ccccc12)C(=O)N[C@@H](CCCN=C(N)N)C(=O)O (H-FKPLWR-OH)  25000 nM
22. CC(C)C[C@H](NC(=O)[C@@H](N)Cc1ccccc1)C(=O)N[C@H](C(=O)N[C@@H](CC(C)C)C(=O)N1CCC[C@H]1C(=O)N[C@@H](CCCN=C(N)N)C(=O)O)[C@@H](C)O (H-FLTLPR-OH)  29000 nM
23. CC(C)C[C@H](NC(=O)[C@@H]1CCCN1C(=O)[C@H](CCCCN)NC(=O)[C@@H](N)Cc1ccccc1)C(=O)N[C@@H](C)C(=O)N[C@@H](CCCNC(=N)N)C(=O)O (H-FKPLAR-OH)  33000 nM
24. CC(C)C[C@H](NC(=O)[C@@H](NC(=O)[C@H](CC(C)C)NC(=O)[C@@H](N)Cc1ccccc1)[C@@H](C)O)C(=O)N[C@@H](C)C(=O)N[C@@H](CCCN=C(N)N)C(N)=O (H-FLTLAR-NH2)  37000 nM
25. CCCC[C@H](NC(=O)[C@@H]1CCCN1C(=O)[C@H](CCCCN)NC(=O)[C@@H](N)Cc1ccccc1)C(=O)N[C@@H](C)C(=O)N[C@@H](CCCN=C(N)N)C(=O)O (H-FKP[Nle]AR-OH)  38000 nM
26. CC(C)C[C@H](NC(=O)[C@@H](NC(=O)[C@H](CC(C)C)NC(=O)[C@@H](N)Cc1ccccc1)C(C)C)C(=O)N[C@@H](C)C(=O)N[C@H](CCCN=C(N)N)C(=O)O  57000 nM
27. CC(C)C[C@H](NC(=O)[C@H](C)NC(=O)[C@H](CC(C)C)NC(=O)[C@@H](N)Cc1ccccc1)C(=O)N[C@@H](C)C(=O)N[C@@H](CCCNC(=N)N)C(=O)O (H-FLALAR-OH)  101000 nM

same assay, conditions: read-out: pEC50 (converted)

`CC(C)C[C@H](NC(=O)[C@H](C)NC(=O)[C@H](CC(C)C)NC(=O)[C@@H](N)Cc1ccccc1)C(=O)N[C@@H](C)C(=O)N[C@@H](CCCNC(=N)N)C(=O)O` (H-FLALAR-OH) was tested, and the EC50 was 1100 nM.
